Patent publication US9809853B2, “Calcium-activated chloride channel involved in human sweat formation” (BRAIN Biotechnology Research and Information Network AG, priority 2012, dated 2017)

Molecular target: T1, TMEM16A(acΔe3) (Homo sapiens, UniProt Q5XXA6)
T1 construct: expressed in transfected cells
T1 sequence (Q5XXA6 1-927 isoform Q5XXA6-4): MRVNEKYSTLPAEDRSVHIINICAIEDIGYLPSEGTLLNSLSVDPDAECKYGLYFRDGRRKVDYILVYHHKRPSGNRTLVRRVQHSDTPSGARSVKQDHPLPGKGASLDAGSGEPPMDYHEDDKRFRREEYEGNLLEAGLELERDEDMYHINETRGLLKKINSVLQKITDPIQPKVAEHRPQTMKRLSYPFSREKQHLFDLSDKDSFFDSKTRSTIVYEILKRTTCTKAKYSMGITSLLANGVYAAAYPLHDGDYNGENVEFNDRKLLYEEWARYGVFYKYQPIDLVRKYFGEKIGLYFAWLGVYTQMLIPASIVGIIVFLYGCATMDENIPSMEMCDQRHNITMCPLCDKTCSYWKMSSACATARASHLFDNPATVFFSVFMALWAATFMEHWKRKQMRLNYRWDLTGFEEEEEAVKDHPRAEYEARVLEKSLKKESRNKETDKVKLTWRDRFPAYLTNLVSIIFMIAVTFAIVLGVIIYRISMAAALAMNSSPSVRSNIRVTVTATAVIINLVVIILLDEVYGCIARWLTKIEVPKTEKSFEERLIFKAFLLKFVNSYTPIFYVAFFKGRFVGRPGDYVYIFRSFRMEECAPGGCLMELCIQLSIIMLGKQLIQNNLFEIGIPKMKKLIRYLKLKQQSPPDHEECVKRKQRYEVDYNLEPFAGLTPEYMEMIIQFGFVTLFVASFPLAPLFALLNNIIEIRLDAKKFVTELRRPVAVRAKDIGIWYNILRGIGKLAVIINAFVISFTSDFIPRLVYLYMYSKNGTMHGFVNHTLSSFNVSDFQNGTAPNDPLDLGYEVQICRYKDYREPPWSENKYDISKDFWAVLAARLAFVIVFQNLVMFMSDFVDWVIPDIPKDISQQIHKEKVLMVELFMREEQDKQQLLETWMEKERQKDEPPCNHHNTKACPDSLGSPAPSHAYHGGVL
Assay: hsYFP quenching assay in NCL-SG3-hsYFP-TMEM16A(acΔe3) cells
Assay type: cell-based
Details: 330 μM ATP; for Effect of pretreatment on hsYFP quenching / Ca^2+-dependent Cl^− secretion after ATP: cells overexpressing TMEM16A(acΔe3)
Method: NCL-SG3-hsYFP, NCL-SG 3-hsYFP-TMEM16A(ac) and NCL-SG3-hsYFP-TMEM16A(acΔe3) cells were untreated (basal activity) or stimulated with ATP (330 μM). Quenching of hsYFP fluorescence was determined. The rate of I^− influx (sec^−1) was calculated from the initial slope of measured hsYFP fluorescence (ΔYFP fluorescence/Δtime) and is a direct measure of CaCC activity. For better comparison fold changes compared to basal activity of parental cells are shown. […] All influx rate differences are higly statistically significant, except the basal influx rate of parental and TMEM16A(ac) overexpressing NCL-SG3-hsYFP cells (Student's t-test, two-tailed; *** p-value<0.0001).
TMEM16A(ac) and TMEM16A(acΔe3) are present in human eccrine sweat glands and were therefore obtained by RT-PCR amplification using TRIzol® (Invitrogen) extracted RNA from freshly isolated human eccrine sweat glands using oligonucleotides (forward 5′-[…]; reverse 5′-[…]) SEQ ID NOS: 5 and 6 , which amplify full-length TMEM16A, and subsequently cloned into the proprietary eukaryotic gene expression plasmid (pEF1α-TMEM16A(ac) and pEF1α-TMEM16A(acΔe3), FIG. 6A). […] Both genes are coupled by an internal ribosomal entry site (IRES) to enable efficient translation of both open reading frames located on the same mRNA. […]
Taken together, NCL-SG3-hsYFP cells can be used to monitor Ca^2+-dependent Cl^− fluxes, which represent the initial step in primary sweat formation in sweat gland cells. […] Microplates were transferred into an automated fluorescence plate reader (FlexStation®, Molecular Devices) and cellular hsYFP fluorescence was continuously recorded every 3.5 sec until end of the experiment (excitation at 485 nm, emission at 535 nm, cutoff 515 nm). […] NCL-SG3-hsYFP cells allow quantitative evaluation of in vivo Cl^− channel activity (FIGS. 9 and 10D). To determine the exact rate of Cl^− efflux/I^− influx the hsYFP fluorescence was plotted against time (ΔYFP fluorescence/Δtime). […]

Effect of pretreatment on hsYFP quenching / Ca^2+-dependent Cl^− secretion after ATP | Effect of pretreatment on hsYFP quenching / Ca^2+-dependent Cl^− secretion after ATP (listed as tannic acid) | SMILES | ATP-induced activity (I^− influx rate, fold) (TMEM16A(acΔe3) overexpressing cells)
significant reduction of hsYFP quenching | inhibited | O=C(OC[C@H]1O[C@@H](OC(=O)c2cc(O)c(O)c(OC(=O)c3cc(O)c(O)c(O)c3)c2)[C@H](OC(=O)c2cc(O)c(O)c(OC(=O)c3cc(O)c(O)c(O)c3)c2)[C@@H](OC(=O)c2cc(O)c(O)c(OC(=O)c3cc(O)c(O)c(O)c3)c2)[C@@H]1OC(=O)c1cc(O)c(O)c(OC(=O)c2cc(O)c(O)c(O)c2)c1)c1cc(O)c(O)c(OC(=O)c2cc(O)c(O)c(O)c2)c1 [TA, tannic acid] | –
– | – | Nc1ncnc2c1ncn2[C@@H]1O[C@H](COP(=O)(O)OP(=O)(O)OP(=O)(O)O)[C@@H](O)[C@H]1O [ATP] | 2 fold
